# Measurements: patent US8093028B2, “Engineered glycosyltransferases with expanded substrate specificity” (Wisconsin Alumni Research Foundation, priority 2007, dated 2012)
# Read-outs that look alike come from different tables or passages of the source.
# Legend:
# [1] = molecular target: T1, OleD P67T/S132F/A242V (Streptomyces antibioticus, UniProt Q53685, A242V/P67T/S132F); assay: Rate of glucoside formation with acceptors (RP-HPLC); format: biochemical; settings: for Rate of glucoside formation, P67T/S132F/A242V: 200 μM acceptor, 1 mM UDPG
# T1 construct: made in house; host or cells: E. coli (site-directed mutant of pET28/OleD)
# Procedure: Enzyme assays for the determination of glycosyl transfer rate to FIG. 1: 4, Table 1: 27-32 were carried out in a total volume of 500 μl 50 mM Tris-HCl (pH8.0) containing 5 mM MgCl2, 200 μM acceptor, 1 mM UDPG, and 50 μg pure enzyme. Aliquots (100 μl) were removed between 0 and 30 min, at which time product formation was still linear with respect to time, and quenched with 90 μl of an 8:1 mixture of ice-cold MeOH/HCl, and centrifuged at 14,000 rpm for 10 min. Supernatants were analyzed by analytical reverse-phase HPLC with a 250 mm×4.6 mm Gemini […] C18 column (Phenomenex, Torrance, Calif.) using a gradient of 10-90% CH3CN in 0.1% trifluoroacetic acid (TFA)/H2O in 20 min at 1 ml/min, with detection at 254 nm. HPLC peak areas were integrated, and the product concentration calculated as a percent of the total peak area. Product identity was confirmed by co-elution with a commercial standard when available and, in all cases, by LC-MS (FIG. 8). […]
# Enzyme reactions were carried out in a total volume of 500 μl 50 mM Tris-HCl (pH8.0) containing 5 mM MgCl2, 200 μM acceptor, 1 mM UDPG, and 50 μg pure enzyme. Aliquots (100 μl) were removed between 0 and 30 min, and quenched with 90 μl of an 8:1 mixture of ice-cold MeOH/HCl for activity towards FIG. 1: 4, Table 1: 27-32, or with 90 μl of ice-cold MeOH for activity towards FIG. 1: 1, and the samples centrifuged at 14,000 rpm for 10 min.
# For determination of activity to FIG. 1: 4, Table 1: 27-32, supernatants were analyzed by analytical reverse-phase HPLC with a Gemini 5μ C18 column (Phenomenex) using a gradient of 10-90% CH3CN in 0.1% trifluoroacetic acid (TFA)/H2O in 20 min, with detection at 254 nm. HPLC peak areas were integrated, and the product concentration calculated as a percent of the total peak area. All products were characterized by LC-MS. Mass spectra were obtained using electrospray ionization on an Agilent 1100 HPLC-MSD SL quadrapole mass spectrometer connected to a UV/Vis diode array detector. For LC-MS analysis, quenched reaction mixtures (see below) were analyzed by analytical reverse-phase HPLC with a 250 mm×4.6 mm Gemini 5μ C18 column (Phenomenex, Torrance, Calif.) using a gradient of 10-90% CH3CN in 0.1% formic acid/H2O in 20 min at 1 ml/min, with detection at 254 nm.
# For determination of activity toward FIG. 1: 1, centrifuged reaction mixtures were analyzed by analytical reverse-phase HPLC with a Gemini 5μ C18 column (Phenomenex) using a gradient of 0-90% CH3CN in 50 mM NH3COOH over 30 min at 1 ml/min. Compounds FIG. 1: 1 and 3 were detected by evaporative light scattering detection (ELSD) using a drift tube temperature of 105° C. and a nitrogen flow of 2.5 ml/min. All products were characterized by APCI LC-MS on an Agilent 1100 Series LC/MSD quadrapole mass spectrometer connected to a UV detector. Quenched reaction mixtures were analyzed by reverse-phase HPLC with a 10 mm×4.6 mm Zorbax Extend 5μ C18 Analytical Guard Column (Agilent Technologies) using an isocratic gradient of 80% MeOH in 2 min at 1 ml/min, with detection at 254 nm.
# [2] = Solubility limit of acceptors; format: physicochemical
# [3] = molecular target: T2, OleD A242V (Streptomyces antibioticus, UniProt Q53685, A242V/P55A/R82V/R83E/T84P); assay: Specific activity with novobiocic acid or 4-Me-umb as acceptor and UDP-Glc; format: biochemical; settings: UDP-Glc donor
# T2 construct: made in house; host or cells: E. coli BL21(DE3)pLysS (error-prone PCR clone in pET28a)
# Procedure: (§1) Determination of specific activity with 1 or 4 as acceptor. Enzyme reactions were carried out in a total volume of 100 μl/50 mM Tris-HCl (pH8.0) containing 5 mM MgCl2, 200 μM (FIG. 9: 1) or (FIG. 9: 4), 5 mM (FIG. 12: 5), and typically 10-50 μg pure enzyme. At a suitable time interval during which rate of product formation was linear with time (typically 2-20 min), reactions were quenched with 100 μl MeOH, and the samples centrifuged at 10,000 g for 10 min. Supernatants were analyzed by analytical reverse-phase HPLC with a Gemini 5μ C18 column (Phenomenex) using a gradient of 10-90% CH3CN in 0.1% trifluoroacetic acid (TFA)/H2O in 20 min, with detection at 254 nm. […] The identity of (FIG. 9: 7) was confirmed by LC-MS and NMR while the […] of glucoside (FIG. 9: 6) was confirmed by co-elution with a commercial standard and LC-MS analysis. HPLC peak areas were integrated, and the product concentrations calculated as a percent of the total peak area. Specific activity was expressed as nmols product formed/min/mg protein.
# [4] = molecular target: T3, OleD I112T (Streptomyces antibioticus, UniProt Q53685, I112T/P55A/R82V/R83E/T84P); assay: as above; format: biochemical; settings: UDP-Glc donor
# T3 construct: made in house; host or cells: E. coli (site-directed mutant of pET28/OleD)
# Procedure: as §1
# [5] = molecular target: T4, OleD P67T (Streptomyces antibioticus, UniProt Q53685, P55A/P67T/R82V/R83E/T84P); assay: as above; format: biochemical; settings: UDP-Glc donor
# T4 construct: made in house; host or cells: E. coli (site-directed mutant of pET28/OleD)
# Procedure: as §1
# [6] = molecular target: T5, WT OleD (Streptomyces antibioticus, UniProt Q53685, P55A/R82V/R83E/T84P); format: biochemical; settings: named substrate varied, other substrate fixed at 5 mM
# T5 construct: made in house; host or cells: E. coli BL21(DE3)pLysS, plasmid pET28/OleD
# Procedure: Determination of kinetic parameters. Enzyme assays were carried out in a total volume of 100 μl 50 mM Tris-HCl (pH 8.0) containing 5 mM MgCl2, and typically 10-50 μg pure enzyme. Kinetic parameters kcat and Km were determined with both (FIG. 9: 1) and (FIG. 12: 5) as variable substrates. […] Each experiment was performed in triplicate. Aliquots ([…]) were removed between 0 and 30 min, at which time product formation was still linear with respect to time, and quenched with 100 μl of ice-cold MeOH, and centrifuged at 10,000 g for 10 min. Supernatants were analyzed by analytical reverse-phase HPLC as described above. The substrate (FIG. 9: 1) and the glucoside product (FIG. 9: 7) HPLC peak areas were integrated, and the product concentration calculated as a percent of the total peak area. Initial velocities were fitted to the Michaelis-Menten equation using Sigma Plot.
Structure (SMILES),"Rate of glucoside formation, P67T/S132F/A242V [1]","solubility ([2]; in kinetic assay, read-out: solubility limit) [mM]","improvement in specific activity, A242V compared to WT OleD [3]","specific activity, I112T compared to WT OleD [4]","improvement in specific activity, P67T compared to WT OleD [5]",Km [6] [mM],kcat [6] [min⁻¹],"specific activity, fold higher than WT OleD ([1]; 4 and 2 as acceptor/donor) [fold]","Fold-improvement compared to WT OleD ([1]; rate of P67T/S132F/A242V versus WT, UDPG donor) [fold]","solubility ([2]; aqueous with cosolvent or surfactant or cyclodextrin, in water/DMSO, read-out: solubility limit) [mM]","solubility ([2]; enzyme assay buffer (50 mM Tris-HCl with 5 mM MgCl2), pH 8, limited solubility in assay, read-out: solubility) [mM]"
"CC(C)=CCc1cc(C(=O)Nc2c(O)c3ccc(O)c(C)c3oc2=O)ccc1O [novobiocic acid (29), novobiocic acid]",1.14 mmols/product formed/min/μg enzyme × 10^3,5,two-three fold,7.4 fold,two-three fold,2,0.041,–,–,–,–
"Cc1cc(=O)oc2cc(O)ccc12 [4-Me-umb (4), 7-hydroxy-4-methylcoumarin]",84 mmols/product formed/min/μg enzyme × 10^3,–,~2.3 fold,approximately 0.5 fold,approximately 7 fold,–,–,~30,33,10,< 4
